Measurements from patent US9434711B2 (Janssen Pharmaceutica, NV, priority 2007, dated 2016).

Target: canine TRPM8 (Canis lupus familiaris, UniProt Q1A7N1)
Test: In Vitro Canine TRPM8 Functional Assay (Ca2+ fluorescence, icilin activation)
Type: cell-based
Details: for inhibition at 0.2 µM: compound at 0.2 μM, read-out: % Inh @ 0.2; for inhibition at 0.2 µM / inhibition at 0.5 µM: canine TRPM8, icilin activation; for IC50: HEK293 cells stably expressing canine TRPM8, icilin activation, eight-point dose-response, read-out: IC50; for inhibition at 0.5 µM: compound at 0.5 μM, read-out: % Inh @ 0.5
Method: The functional activity of compounds of the formula (I) was determined by measuring changes in intracellular calcium concentration using a Ca^2+-sensitive fluorescent dye. The changes in fluorescent signal were monitored by a fluorescence plate reader, either a FLIPR™ (Molecular Devices) or FDSS (Hamamatsu).
At 24 hrs prior to assay, HEK293 cells stably expressing canine TRPM8 were seeded in culture medium in black wall, clear-base poly-D-lysine coated 384-well plates (BD Biosciences, NJ, USA) and grown overnight in 5% CO2 at 37° C. On assay day, growth media was removed and cells were loaded with Calcium 3 Dye (Molecular Devices) for 35 min at 37° C., under 5% CO2 and then for 25 min at room temperature and atmosphere. Subsequently, cells were tested for agonist-induced increases in intracellular Ca^2+ levels using FLIPR™ or FDSS. Cells were challenged with a compound of the Formula (I) (at varying concentrations) and intracellular Ca^2+ was measured for 5 min prior to the addition of icilin to all wells to achieve a final concentration that produces approximately an 80% maximal response. EC50 or IC50 values for compounds of the present invention were determined from eight-point dose-response studies. Curves were generated using the average of quadruplicate wells for each data point.

Sequence of canine TRPM8 (Q1A7N1 1-1104): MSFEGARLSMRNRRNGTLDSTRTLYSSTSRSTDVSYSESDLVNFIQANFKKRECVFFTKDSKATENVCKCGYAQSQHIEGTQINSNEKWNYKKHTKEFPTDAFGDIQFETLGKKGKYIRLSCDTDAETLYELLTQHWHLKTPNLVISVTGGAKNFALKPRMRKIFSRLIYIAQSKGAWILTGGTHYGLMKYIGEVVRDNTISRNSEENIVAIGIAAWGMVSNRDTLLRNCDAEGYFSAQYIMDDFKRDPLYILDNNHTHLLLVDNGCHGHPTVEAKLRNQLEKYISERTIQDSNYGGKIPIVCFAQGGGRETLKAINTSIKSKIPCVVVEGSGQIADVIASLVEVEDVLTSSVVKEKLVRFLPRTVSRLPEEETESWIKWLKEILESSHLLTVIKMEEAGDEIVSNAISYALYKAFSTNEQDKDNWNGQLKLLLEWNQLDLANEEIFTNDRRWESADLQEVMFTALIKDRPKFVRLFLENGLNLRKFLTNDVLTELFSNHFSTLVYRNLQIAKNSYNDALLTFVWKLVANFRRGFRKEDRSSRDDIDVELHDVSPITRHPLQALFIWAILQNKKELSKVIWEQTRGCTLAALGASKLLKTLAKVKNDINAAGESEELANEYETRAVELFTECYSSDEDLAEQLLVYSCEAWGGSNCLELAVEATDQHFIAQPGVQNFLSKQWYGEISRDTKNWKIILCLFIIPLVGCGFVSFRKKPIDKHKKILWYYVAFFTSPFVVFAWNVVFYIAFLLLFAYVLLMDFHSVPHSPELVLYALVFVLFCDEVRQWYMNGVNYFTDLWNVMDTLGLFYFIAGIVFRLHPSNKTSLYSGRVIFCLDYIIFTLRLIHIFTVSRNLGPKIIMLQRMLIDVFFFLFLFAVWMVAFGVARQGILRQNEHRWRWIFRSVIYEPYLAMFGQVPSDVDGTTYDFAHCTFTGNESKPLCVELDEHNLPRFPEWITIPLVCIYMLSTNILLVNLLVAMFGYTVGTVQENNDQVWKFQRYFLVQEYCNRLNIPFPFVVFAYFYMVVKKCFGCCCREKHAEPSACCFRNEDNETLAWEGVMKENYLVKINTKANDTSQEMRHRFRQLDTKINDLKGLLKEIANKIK

inhibition at 0.2 µM	IC50	inhibition at 0.5 µM	SMILES
	0.319 µM	87%	O=C1CCCN1CCN(c1sc2ccccc2c1Cl)S(=O)(=O)c1ccccc1 [Compound 82, N-(3-Chloro-benzo[b]thiophen-2-yl)-N-[2-(2-oxo-pyrrolidin-1-yl)-ethyl]-benzenesulfonamide]
	0.048 µM	101%	CCCCN(c1sc2ccccc2c1Cl)S(=O)(=O)c1ccccc1 [Compound 83, N-(Butyl)-N-(3-chloro-benzo[b]thiophen-2-yl)-benzenesulfonamide]
	0.035 µM	100%	C=CCN(c1sc2ccccc2c1Cl)S(=O)(=O)c1ccccc1 [Compound 84, N-(Allyl)-N-(3-chloro-benzo[b]thiophen-2-yl)-benzenesulfonamide]
		100%	O=S(=O)(c1ccccc1)N(CCc1ccccc1)c1sc2ccccc2c1Cl [Compound 85, N-(3-Chloro-benzo[b]thiophen-2-yl)-N-(phenethyl)-benzenesulfonamide]
	0.17 µM	94%	CN(C)CCN(c1sc2ccccc2c1Cl)S(=O)(=O)c1ccccc1 [Compound 87, N-(3-Chloro-benzo[b]thiophen-2-yl)-N-(2-dimethylamino-ethyl)-benzenesulfonamide]
	0.261 µM	88%	CS(=O)(=O)CCN(c1sc2ccccc2c1Cl)S(=O)(=O)c1ccccc1 [Compound 88, N-(3-Chloro-benzo[b]thiophen-2-yl)-N-(2-methanesulfonyl-ethyl)-benzenesulfonamide]
		33%	O=C1NCCN1CCN(c1sc2ccccc2c1Cl)S(=O)(=O)c1ccccc1 [Compound 91, N-(3-Chloro-benzo[b]thiophen-2-yl)-N-[2-(2-oxo-imidazolidin-1-yl)-ethyl]-benzenesulfonamide]
79%	0.0682 µM		O=S(=O)(c1ccccc1)N(CCN1CCOCC1)c1sc2ccccc2c1Cl [Compound 92, N-(3-Chloro-benzo[b]thiophen-2-yl)-N-(2-morpholin-4-yl-ethyl)-benzenesulfonamide]
97%	0.015 µM		CSCCN(c1sc2ccccc2c1C)S(=O)(=O)c1ccccc1 [Compound 98, N-(3-Methyl-benzo[b]thiophen-2-yl)-N-(2-methylsulfanyl-ethyl)-benzenesulfonamide]
99%	0.018 µM		COCCN(c1sc2ccccc2c1C)S(=O)(=O)c1ccccc1 [Compound 99, N-(2-Methoxy-ethyl)-N-(3-methyl-benzo[b]thiophen-2-yl)-benzenesulfonamide]

More lines, now with the values behind:

SMILES	inhibition at 0.2 µM	IC50	inhibition at 0.5 µM
Cc1c(N(Cc2ccc(F)c(C(F)(F)F)c2)S(=O)(=O)c2cccc3c2CN(C(=O)C(F)(F)F)CC3)sc2ccccc12 [Compound 73, N-(4-Fluoro-3-trifluoromethyl-benzyl)-N-(3-methyl-benzo[b]thiophen-2-yl)-2-(2,2,2-trifluoro-acetyl)-1,2,3,4-tetrahydro-isoquinoline-8-sulfonamide]	24%		
Cc1nn(C)c(C)c1S(=O)(=O)N(Cc1ccc(F)c(C(F)(F)F)c1)c1sc2ccccc2c1C [Compound 74, N-(4-Fluoro-3-trifluoromethyl-benzyl)-N-(3-methyl-benzo[b]thiophen-2-yl)-1,3,5-trimethyl-1H-pyrazole-4-sulfonamide]	97%	0.021 µM	
Cc1nc(C)c(S(=O)(=O)N(Cc2ccc(F)c(C(F)(F)F)c2)c2sc3ccccc3c2C)s1 [Compound 75, N-(4-Fluoro-3-trifluoromethyl-benzyl)-N-(3-methyl-benzo[b]thiophen-2-yl)-2,4-dimethyl-thiazole-5-sulfonamide]	98%	0.018 µM	
Cc1c(N(Cc2ccc(F)c(C(F)(F)F)c2)S(=O)(=O)c2ccc(Cl)nc2)sc2ccccc12 [Compound 76, N-(4-Fluoro-3-trifluoromethyl-benzyl)-N-(3-methyl-benzo[b]thiophen-2-yl)-6-chloro-pyridine-3-sulfonamide]	95%	0.021 µM	
Cc1c(N(Cc2ccc(F)c(C(F)(F)F)c2)S(=O)(=O)c2cccnc2Cl)sc2ccccc12 [Compound 77, N-(4-Fluoro-3-trifluoromethyl-benzyl)-N-(3-methyl-benzo[b]thiophen-2-yl)-2-chloro-pyridine-3-sulfonamide]	97%	0.022 µM	
O=S(=O)(c1ccsc1)N(Cc1ccc(F)c(C(F)(F)F)c1)c1cc2ccccc2s1 [Compound 78, N-(Benzo[b]thiophen-2-yl)-N-(4-fluoro-3-trifluoromethyl-benzyl)-thiophene-3-sulfonamide]	102%	0.0225 µM	
Cc1c(N(Cc2ccc(F)c(C(F)(F)F)c2)S(=O)(=O)c2cccc3c2CNCC3)sc2ccccc12 [Compound 79, N-(4-Fluoro-3-trifluoromethyl-benzyl)-N-(3-methyl-benzo[b]thiophen-2-yl)-1,2,3,4-tetrahydro-isoquinoline-8-sulfonamide]	69%		
O=S(=O)(c1ccccc1)N(CC1CCCCC1)c1sc2ccccc2c1Cl [Compound 80, N-(3-Chloro-benzo[b]thiophen-2-yl)-N-(cyclohexylmethyl)-benzenesulfonamide]		0.029 µM	98%
CC(C)(C)OCCN(c1sc2ccccc2c1Cl)S(=O)(=O)c1ccccc1 [Compound 81, N-(2-tert-Butoxy-ethyl)-N-(3-chloro-benzo[b]thiophen-2-yl)-benzenesulfonamide]		0.015 µM	99%
CC(C)(C)OC(=O)NCCN(c1sc2ccccc2c1Cl)S(=O)(=O)c1ccccc1 [Compound 86, N-(3-Chloro-benzo[b]thiophen-2-yl)-N-[2-(carbo-tert-butoxyamino)ethyl]-benzenesulfonamide]		0.053 µM	101%
CC(C)(C)OC(=O)N1CCCC1CN(c1sc2ccccc2c1Cl)S(=O)(=O)c1ccccc1 (stereo not drawn) [Compound 89, N-(3-Chloro-benzo[b]thiophen-2-yl)-N-{[1-(carbo-tert-butoxy)pyrrolidin-2-yl]-methyl}-benzenesulfonamide]			96%
CC(C)(C)OC(=O)N1CCC(CN(c2sc3ccccc3c2Cl)S(=O)(=O)c2ccccc2)CC1 [Compound 90, N-(3-Chloro-benzo[b]thiophen-2-yl)-N-{[1-(carbo-tert-butoxy)piperidin-4-yl]-methyl}-benzenesulfonamide]		0.021 µM	99%
COC(=O)[C@H](C)CN(c1sc2ccccc2c1C)S(=O)(=O)c1ccccc1 [Compound 93, N-(3-Methyl-benzo[b]thiophen-2-yl)-N-[2(R)-methyl-2-carbomethoxy-ethyl]-benzenesulfonamide]	98%	0.011 µM	
COC(=O)[C@@H](C)CN(c1sc2ccccc2c1C)S(=O)(=O)c1ccccc1 [Compound 94, N-(3-Methyl-benzo[b]thiophen-2-yl)-N-[2(S)-methyl-2-carbomethoxy-ethyl]-benzenesulfonamide]	98%	0.018 µM	
Cc1c(N(CCN2CCOCC2)S(=O)(=O)c2ccccc2)sc2ccccc12 [Compound 95, N-(3-Methyl-benzo[b]thiophen-2-yl)-N-(2-morpholin-4-yl-ethyl)-benzenesulfonamide]	97%	0.006 µM	
Cc1c(N(CCN2CCCCC2)S(=O)(=O)c2ccccc2)sc2ccccc12 [Compound 96, N-(3-Methyl-benzo[b]thiophen-2-yl)-N-(2-piperidin-1-yl-ethyl)-benzenesulfonamide]	98%	0.004 µM	
Cc1c(N(CC2CC2)S(=O)(=O)c2ccccc2)sc2ccccc12 [Compound 97, N-(Cyclopropylmethyl)-N-(3-methyl-benzo[b]thiophen-2-yl)-benzenesulfonamide]	96%	0.014 µM	
Cc1c(N(CCOC(C)(C)C)S(=O)(=O)c2ccccc2)sc2ccccc12 [Compound 100, N-(2-tert-Butoxy-ethyl)-N-(3-methyl-benzo[b]thiophen-2-yl)-benzenesulfonamide]	103%	0.0068 µM	
COC(=O)CN(c1sc2ccccc2c1C)S(=O)(=O)c1ccccc1 [Compound 101, N-(3-Methyl-benzo[b]thiophen-2-yl)-N-(carbomethoxy-methyl)-benzenesulfonamide]	101%	0.0305 µM	
Cc1c(N(CC(F)F)S(=O)(=O)c2ccccc2)sc2ccccc12 [Compound 102, N-(2,2-Difluoro-ethyl)-N-(3-methyl-benzo[b]thiophen-2-yl)-benzenesulfonamide]	98%	0.0402 µM	
Cc1c(N(CC2CCCN2C(=O)OC(C)(C)C)S(=O)(=O)c2ccccc2)sc2ccccc12 (stereo not drawn) [Compound 103, N-(3-Methyl-benzo[b]thiophen-2-yl)-N-{[1-(carbo-tert-butoxy)pyrrolidin-2-yl]-methyl}-benzenesulfonamide]	80%	0.0908 µM	
Cc1c(N(CCc2ccccc2)S(=O)(=O)c2ccccc2)sc2ccccc12 [Compound 104, N-(3-Methyl-benzo[b]thiophen-2-yl)-N-(phenethyl)-benzenesulfonamide]	98%	0.0089 µM	
CCS(=O)(=O)N(CCOC)c1sc2ccccc2c1C [Compound 105, N-(2-Methoxy-ethyl)-N-(3-methyl-benzo[b]thiophen-2-yl)-ethanesulfonamide]	20%		
